From patent US20110021440A1, “APOPTOTIC PATHWAY TARGETING FOR THE DIAGNOSIS AND TREATMENT OF CANCER” (UNIVERSITY OF MARYLAND, BALTIMORE, priority 2007, published 2011)
“Also recorded” adds a separate entry of the source. Peptide text beside a SMILES is read from it. * marks the point of attachment. Cbz = O=C(OCc1ccccc1)*

Assays:
MCF10A cells [1] = experiment: Apoptosis / cell death in MCF10A cells (PARP cleavage); assay type: cell-based, human; details: for cell death: 24 h, TRAIL 1 μg/mL, CHX 30 μg/mL, DOX 3 μg/mL, not shown; for apoptosis as assessed by PARP cleavage: 24 hours
Procedure: (§1) FIG. 1A relates to human mammary epithelial cells (MCF10A) grown for 24 h in the presence or absence of a proteasomal inhibitor (MG132, 5 μM). […] Lysates from Ramos cells are included as a positive control for Bik and parallel blotting for β-actin confirm equivalent levels of protein. FIG. 1B relates to Bik protein increases after forced cell rounding with the actin polymerization inhibitor, Latrunculin-A (LA, 5 μM for 24 h). Bik protein is low in standard growth media (GROW). […] Cell rounding may therefore act selectively to upregulate Bik rather than through a nonspecific apoptotic signal.
(§2) Several apoptotic stimuli were tested for their ability to induce Bik expression in MCF10A cells were evaluated (FIG. 7A). Compared to a Ramos positive control lysate, MCF10A cells express very low levels of Bik under normal growth conditions. […] Bik expression in MCF10A cells increased after treatment with Latrunculin-A (LA), an inhibitor of the actin cytoskeleton that causes cell rounding (Martin et al., Mol. Cell. Biol., 21:6529-6536 (2001)). Apoptosis caused by cell rounding and cytoskeletal disruption has been termed amorphosis (Martin et al., Biochim. Biophys. Acta., 1692:145-157 (2004)), and resistance to amorphosis is thought to contribute to metastatic potential by allowing tumor cells to tolerate the cell shape changes that occur during bloodborne dissemination (Martin et al., Oncogene, 23:4641-4645 (2004); Mehlen et al., Nat. Rev. Cancer, 6:449-458 (2006); Pinkas et al., Mol. Cancer. Res., 2:551-556 (2004)). […] Since Bik is induced by cell rounding, its loss in tumors may reduce their apoptotic sensitivity and yield a greater metastatic potential. In fact, reduced expression of Bik predicts increased nodal involvement in colorectal cancer (Bandres et al., Oncol. Rep., 12:287-292 (2004)). Conversely, forced expression of Bik inhibits systemic breast tumor growth (Zou et al., Cancer Res., 62:8-12 (2002)).

Bik protein [2] = experiment: Western blotting of Bik protein in MCF10A cells; assay type: cell-based, human; details: 24 h
Procedure: as §1
(§3) FIG. 6 illustrates Bik protein is degraded by the proteasome but remains reduced in tumor cell lines. Protein lysates from control cells (Ramos), nontumorigenic human mammary epithelial cells (MCF10A) or 11 human breast tumor cell lines were immunoblotted for Bik and b-actin as a loading control. […] Bik protein remained low in the tumor cell lines, even in the presence of MG132.
(§4) FIG. 7 illustrates tumor lines with reduced Bik resist apoptosis by cytoskeletal disruption.
(§5) Bik values were normalized to amplification of GAPDH, which was highly consistent in all cell lines and dissociation curves confirmed specificity with a single major amplification product in each reaction type (FIG. 5B). Despite the detectable levels of mRNA, Bik protein levels were very low in the tumor lines and MCF10A cells under normal growth conditions. Since Bik can be degraded by the proteasome (Zhu et al., Oncogene, 24:4993-4999 (2005)), cells were treated with MG132 to inhibit the proteasome and increase detectable Bik levels (FIG. 6). […] Downregulation of Bik in MDA-MB-453 cells therefore occurs independently from mRNA expression. However, loss of Bik function as a common event in breast tumors continues to be supported by these finding.
as §2

BCRP protein [3] = experiment: Western blotting of BCRP in MCF10A cells; assay type: cell-based, human; details: LA 5 μM, 24 h, rounded
Procedure: (§6) FIG. 12 illustrates cell rounding also upregulates the BCRP drug resistance protein. […] MCF10A mammary epithelial cells or MCF-7 and Bt-474 breast tumor cells were grown for 24 h in standard media (Control), serum-free conditions (DMEM) or forced cell rounding through inhibition of actin polymerization with Latrunculin-A (LA, 5 μM—Rounded). […] Levels of actin remain constant.

Bik protein [4] = experiment: Western blotting of Bik protein in MCF10A cells stably expressing Bcl-2; assay type: cell-based, human; details: forced cell rounding, LA 5 μM, 24 h
Text: (§7) MCF10A or MCF-7 cells show comparably low levels of Bik. […] This increase in Bik is so strong that the moderate increases observed with LA in MCF10A cells (FIG. 7B) cannot even be detected here due to the short exposure times necessary to prevent oversaturating signal.
as §7, with “FIG. 15 illustrates apoptotically-resistant cell accumulate high” for “MCF10A or MCF-7 cells show comparably low”, “Bik when rounded.” for “Bik.”, “7A)” for “7B)”

BCRP protein [5] = experiment: Western blotting of BCRP in MCF-7 cells; assay type: cell-based, human; details: LA 5 μM, 24 h, rounded
Procedure: as §6

[6] = tested on: MCF10A cells stably expressing Bcl-xL; experiment: Cell viability assay (XTT), MCF10A cells expressing Bcl-xL; assay type: cell-based, human
Procedure: (§8) FIG. 13 illustrates cells expressing the survival proteins Bcl-2 or Bcl-xL are highly resistant to cell death induced by cell rounding (LA). […] Nearly 60% of cells overexpressing Bcl-xL remain viable even at concentrations of LA as high as 20 μM. […] Viability was measured with XTT and each point represents the mean+/−S.D. for triplicate samples.

[7] = tested on: MCF10A cells stably expressing Bcl-2 (10A-Bcl2); experiment: Cell viability assay (XTT), 10A-Bcl2 cells; assay type: cell-based
Procedure: Viability was measured with XTT and each point represents the mean+/−S.D. for triplicate samples.

BCRP protein [8] = experiment: Western blotting of BCRP in Bt-474 cells; assay type: cell-based, human; details: LA 5 μM, 24 h, rounded
Procedure: as §6

breast tumor cell lines = experiment: Cell viability assay (XTT), breast tumor cell lines; assay type: cell-based, human; details: tumor cell lines with reduced Bik; up to very high doses, 5 μM LA; listed as LA
Procedure: as §4
as §2, with “Conversely, forced expression of Bik inhibits systemic breast tumor growth (Zou et al., Cancer Res., 62:8-12 (2002)).” left out

MCF10A cells [9] = assay type: cell-based
Procedure: as §4, §8
FIG. 19 illustrates that YC137 remains toxic to normal cells (MCF10A). […] Such compounds would not be expected to be effective therapies due to likely side effects on normal tissues. If compounds were only toxic to rounded cells, that would be acceptable, since normal tissues are attached and not rounded.
as §2

Bik protein [10] = experiment: Western blotting of Bik protein in MCF10A cells stably expressing Bcl-xL; assay type: cell-based, human; details: forced cell rounding, LA 5 μM, 24 h
Text: as §7
as §7, with “FIG. 15 illustrates apoptotically-resistant cell accumulate high” for “MCF10A or MCF-7 cells show comparably low”, “Bik when rounded.” for “Bik.”, “7A)” for “7B)”

Bik protein [11] = experiment: Immunoblot of Bik protein in 11 human breast tumor cell lines; assay type: cell-based; details: +MG132 5 μM, 24 h; compared with MCF10A
Text: as §3, §5

[12] = tested on: tubulin microtentacles of MDA-436 cells; experiment: DIC imaging of tubulin microtentacles in detached breast tumor cells; assay type: cell-based; details: tetracaine 100 μM
Procedure: (§9) FIG. 23 illustrates methods used to image circulating tumor cells and microtentacles. Surgically-isolated blood vessels from mice are sutured to the ends of glass micropipettes to allow solution flow through the vessels. After endothelial labeling with Fluo-4 (green), MDA-436 breast tumor cells, stained with QDot-655 (red), were injected and allowed to circulate through the vessel. […] In the right panel the effects of microtentacle inhibitors are imaged with DIC microscopy. Detachment of vimentin-expressing breast tumor cell lines, like MDA-231 and MDA-436 (pictured, FIG. 23 D), stimulates the formation of rapidly-moving tubulin microtentacles (Whipple et al., “Vimentin filaments support extension of tubulin-based microtentacles in detached breast tumor cells”, Cancer Research, (2008), (under revision)). We added the kinesin inhibitor, tetracaine (100 μM) (Miyamoto et al., Biophys. J., 78:940-949 (2000)) and collected DIC images every 30 seconds (Yoon et al., “Microtentacles in detached breast tumor cells require kinesin motor activity”, manuscript in preparation (2008)). After approximately 10 minutes, tubulin microtentacles collapse dramatically (FIG. 23 E). This concentration of drug is non-toxic to these cells, even after 24 hours.

MDA-436 cells = experiment: Toxicity of microtentacle inhibitors to breast tumor cells; assay type: cell-based; details: 100 μM, even after 24 hours
Procedure: as §9

[13] = tested on: Bax- and Bak-deficient MEFs (DKO); details: cited from earlier work
[14] = LA 5 μM, TRAIL 1 μg/mL, CHX 30 μg/mL, DOX 3 μg/mL
[15] = LA 24 h, versus parental MCF10A

Molecule: C[C@@H]1C[C@@H]([C@H](O)CC2CC(=O)NC(=O)C2)C(=O)[C@@H](C)C1 [Cycloheximide]
- cell death (MCF10A cells [1]): causes cell death comparable to LA
- apoptosis as assessed by PARP cleavage (MCF10A cells [1]): does induce apoptosis
- Bik protein (Western blotting) (Bik protein [2]; [14]): do not increase Bik levels
- Bik protein (Western blotting) (Bik protein [2]; LA 5 μM, TRAIL 1 μg/mL, CHX 30 μg/mL, DOX 3 μg/mL, listed as cycloheximide): did not induce significant expression of Bik; also recorded: did not increase Bik protein

Molecule: COc1cccc2c1C(=O)c1c(O)c3c(c(O)c1C2=O)C[C@@](O)(C(=O)CO)C[C@@H]3O[C@H]1C[C@H](N)[C@H](O)[C@H](C)O1 [Doxorubicin]
- cell death (MCF10A cells [1]): causes cell death comparable to LA
- apoptosis as assessed by PARP cleavage (MCF10A cells [1]): does induce apoptosis
- Bik protein (Western blotting) (Bik protein [2]; [14]): did not induce significant expression of Bik; also recorded: do not increase Bik levels; also recorded: did not increase Bik protein

Molecule: C/C1=C/C(=O)O[C@@H]2C[C@@H](CC[C@H](C)/C=C\C=C\CC1)O[C@@](O)([C@@H]1CSC(=O)N1)C2 [Latrunculin-A]
- BCRP protein (Western blotting) (BCRP protein [3]): increases BCRP protein
- Bik protein (Western blotting) (Bik protein [4]): dramatic increases in Bik protein
- BCRP protein (Western blotting) (BCRP protein [5]): increases BCRP protein
- resistance to apoptosis induced by cell rounding (XTT) [6, 15]: significantly resistant
- cells remaining viable (XTT) ([6]; LA as high as 20 μM, 24 h): ~60%
- resistance to apoptosis induced by cell rounding (XTT) [7, 15]: significantly resistant
- tolerated doses of LA ([7]; cell rounding): ≤ 20 µM
- BCRP protein (Western blotting) (BCRP protein [8]): not
- resistance to LA-induced apoptosis (XTT viability) (breast tumor cell lines): highly resistant to LA-induced apoptosis; also recorded: significant resistance to apoptosis
- LA concentration at which cell death is maximal (MCF10A cells [9]): 5 µM
- cell viability (XTT) (MCF10A cells [9]; LA 24 h, doses as low as 2.5 μM): drops significantly
- Bik protein (Western blotting) (Bik protein [2]; [14]): increases; also recorded: did increase Bik significantly
- Bik protein (Western blotting) (Bik protein [10]): dramatic increases in Bik protein

Molecule: CC(C)C[C@@H](C=O)NC(=O)[C@H](CC(C)C)NC(=O)[C@H](CC(C)C)NC(=O)OCc1ccccc1 [MG132] (Cbz-Leu-Leu-Leu-aldehyde)
- Bik protein (immunoblot) (Bik protein [11]): significantly lower levels of Bik protein; also recorded: remained low
- Bik protein (Western blotting) (Bik protein [2]; MG132 5 μM): strong induction of Bik protein; also recorded: strongly upregulated; also recorded: strongly increased

Molecule: COC(=O)N[C@@H](CCSC)C(=O)Oc1ccc(Nc2nc3c(s2)C(=O)c2ccccc2C3=O)cc1 [YC-137]
- decrease in cell viability (XTT) compared to YC-137 alone ([7]; 1 μg/ml YC-137 combined with 2.5 μM LA): greater than 2 fold
- cell viability (XTT) compared to YC-137 alone ([7]; YC-137 1 μg/ml or 2.5 μg/ml with LA 2.5 μM, 24 h, P<0.05): significant decrease in cell viability
- doses at which YC-137 causes toxicity on its own ([7]; YC-137 alone): higher than 1 μM
- effect on rounded versus attached cells ([7]; YC-137 at lower levels): affects rounded cells more than attached cells
- cell death on combining with cell rounding ([7]; YC-137 with LA 2.5 μM, 24 h): increases cell death
- toxicity to attached and rounded cells (MCF10A cells [9]): toxic to both attached and rounded MCF10A cells
- viability (XTT) (MCF10A cells [9]): lose viability
- cell death on combining with cell rounding (MCF10A cells [9]; YC-137 with LA 2.5 μM, 24 h): increases cell death

Molecule: CCCCNc1ccc(C(=O)OCCN(C)C)cc1 [tetracaine]
- time to collapse of tubulin microtentacles [12]: approximately 10 minutes
- toxicity to the cells (MDA-436 cells): non-toxic

Molecule: BH3I-1
- toxicity against cells that lack Bax and Bak [13]: toxic against cells that lack Bax and Bak

B1: TRAIL: apoptotic stimulus (protein, UniProt P50591 1-281, looked up)
Tumor necrosis factor ligand …: MAMMEVQGGPSLGQTCVLIVIFTVLLQSLCVAVTYVYFTNELKQMQDKYSKSGIACFLKEDDSYWDPNDEESMNSPCWQVKWQLRQLVRKMILRTSEETISTVQEKQQNISPLVRERGPQRVAAHITGTRGRSNTLSSPNSKNEKALGRKINSWESSRSGHSFLSNLHLRNGELVIHEKGFYYIYSQTYFRFQEEIKENTKNDKQMVQYIYKYTSYPDPILLMKSARNSCWSKDAEYGLYSIYQGGIFELKENDRIFVSVTNEHLIDMDHEASFFGAFLVG
- cell death (MCF10A cells [1]): causes cell death comparable to LA
- apoptosis as assessed by PARP cleavage (MCF10A cells [1]): does induce apoptosis
- Bik protein (Western blotting) (Bik protein [2]; [14]): did not induce significant expression of Bik; also recorded: do not increase Bik levels; also recorded: did not increase Bik protein
